Where two headings read alike, the source gives them in different places.
Columns and labels:
[1] = target: T1, USP7 CD + UBL 1-5 (Homo sapiens, UniProt Q93009); assay: Surface plasmon resonance assay (SPR); format: binding
T1 construct: USP7 CD +
Protocol: The surface plasmon resonance experiments were performed using a Cytiva (formerly GE Healthcare) Biacore 8K equipped with a Series S Sensor Chip SA. The ligands were immobilized via a biotin-modified biotin acceptor peptide. USP7 Ligands were diluted in running buffer (HBS-P+2% DMSO; 10 mM HEPES, pH 7.4, 150 mM NaCl, 1 mM DTT, 0.05% P20, 2% DMSO) to 100 μg/mL and injected at […] until a density between 500-10,000 RU was reached on flow-cell two of each channel, and flow cell one was left blank to serve as a reference surface. Both surfaces were washed until a stable baseline was achieved then 30 startup cycles to condition the surface. To collect kinetic and steady-state binding data, the small molecule analytes were prepared in three-fold dilution series in HBS-P+2% DMSO running buffer. Analytes were injected over both flow cells at a flow rate of […] at 25° C. The complex was allowed to associate for 60 seconds and dissociate for 300 seconds. Data were collected at 10 Hz. The data were fit to a simple 1:1 interaction model global data analysis within Cytiva Biacore Insight Evaluation Software.

[2] = target: USP7 (Homo sapiens, UniProt Q93009); assay: Ub-Rho cleavage assay; format: biochemical
USP7, sequence (Q93009 whole entry): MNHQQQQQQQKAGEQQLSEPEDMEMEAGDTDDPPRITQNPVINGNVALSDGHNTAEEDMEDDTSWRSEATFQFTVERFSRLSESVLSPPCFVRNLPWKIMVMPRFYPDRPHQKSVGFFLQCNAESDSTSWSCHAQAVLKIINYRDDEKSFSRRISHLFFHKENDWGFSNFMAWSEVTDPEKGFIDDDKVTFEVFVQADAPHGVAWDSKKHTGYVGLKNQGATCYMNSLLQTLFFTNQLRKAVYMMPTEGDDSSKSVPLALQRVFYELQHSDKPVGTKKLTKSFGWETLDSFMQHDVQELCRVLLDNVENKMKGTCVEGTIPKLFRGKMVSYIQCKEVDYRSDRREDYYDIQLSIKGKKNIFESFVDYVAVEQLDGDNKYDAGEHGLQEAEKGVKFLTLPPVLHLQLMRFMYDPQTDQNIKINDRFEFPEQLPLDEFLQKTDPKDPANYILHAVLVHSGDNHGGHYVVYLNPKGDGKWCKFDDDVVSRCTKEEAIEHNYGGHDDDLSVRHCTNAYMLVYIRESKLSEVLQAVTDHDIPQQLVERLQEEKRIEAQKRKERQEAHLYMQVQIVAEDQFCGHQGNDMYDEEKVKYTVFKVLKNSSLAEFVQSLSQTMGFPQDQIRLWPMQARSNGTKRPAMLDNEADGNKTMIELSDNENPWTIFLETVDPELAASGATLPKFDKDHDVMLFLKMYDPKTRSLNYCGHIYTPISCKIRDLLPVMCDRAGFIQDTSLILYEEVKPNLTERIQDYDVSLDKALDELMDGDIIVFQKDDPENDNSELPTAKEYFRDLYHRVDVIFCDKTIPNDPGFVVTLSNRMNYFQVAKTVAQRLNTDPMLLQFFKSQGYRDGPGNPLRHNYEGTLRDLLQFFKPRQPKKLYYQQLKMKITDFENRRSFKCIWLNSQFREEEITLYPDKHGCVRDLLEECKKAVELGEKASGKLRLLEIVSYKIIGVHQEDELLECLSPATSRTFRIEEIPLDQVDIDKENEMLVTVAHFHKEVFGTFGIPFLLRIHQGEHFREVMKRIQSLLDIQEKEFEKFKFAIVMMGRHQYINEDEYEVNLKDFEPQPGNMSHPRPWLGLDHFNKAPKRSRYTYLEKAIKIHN
Protocol: All fluorescence measurements were performed on a Molecular Devices FlexStation3 with excitation at 480 nm and emission 540 nm, PMT Gain: Medium, Flash Number: 10. […] Assay buffer for all measurements was 50 mM HEPES, 100 mM NaCl, 0.5 mM EDTA, 1 mM TCEP, 0.1 mg/ml BSA, 0.01% Tween-20, pH 7.8. […] Serial dilutions were made with a Mosquito HTS (SPT Labtech) nanoliter liquid handler. 200 nL of each compound in duplicate or DMSO control were transferred to the assay plate. The first two columns served as positive controls. 9.8 μl per well of USP7 working solution was added to the assay plate. Compound+Protein was incubated for 25 min at 25° C. 10 uL of Ub-Rho substrate was added per well and incubated for an additional 15 min at 25° C. Fluorescence was then measured. Percent response relative to DMSO controls was calculated in GraphPad or Scinamic, and the data was fitted to a non-linear regression to determine IC50 values.

[3] = kinetic KD, read-out: SPR USP7 CD + UBL 1-5 (KD_kinetic)
[4] = steady-state KD, read-out: SPR USP7 CD + UBL 1-5 (KD_ss)
[5] = Ub-Rho substrate, recombinant USP7, read-out: Ub (Rho) USP7.1 (IC50)

T1 sequence (Q93009 208-1102 limits assumed): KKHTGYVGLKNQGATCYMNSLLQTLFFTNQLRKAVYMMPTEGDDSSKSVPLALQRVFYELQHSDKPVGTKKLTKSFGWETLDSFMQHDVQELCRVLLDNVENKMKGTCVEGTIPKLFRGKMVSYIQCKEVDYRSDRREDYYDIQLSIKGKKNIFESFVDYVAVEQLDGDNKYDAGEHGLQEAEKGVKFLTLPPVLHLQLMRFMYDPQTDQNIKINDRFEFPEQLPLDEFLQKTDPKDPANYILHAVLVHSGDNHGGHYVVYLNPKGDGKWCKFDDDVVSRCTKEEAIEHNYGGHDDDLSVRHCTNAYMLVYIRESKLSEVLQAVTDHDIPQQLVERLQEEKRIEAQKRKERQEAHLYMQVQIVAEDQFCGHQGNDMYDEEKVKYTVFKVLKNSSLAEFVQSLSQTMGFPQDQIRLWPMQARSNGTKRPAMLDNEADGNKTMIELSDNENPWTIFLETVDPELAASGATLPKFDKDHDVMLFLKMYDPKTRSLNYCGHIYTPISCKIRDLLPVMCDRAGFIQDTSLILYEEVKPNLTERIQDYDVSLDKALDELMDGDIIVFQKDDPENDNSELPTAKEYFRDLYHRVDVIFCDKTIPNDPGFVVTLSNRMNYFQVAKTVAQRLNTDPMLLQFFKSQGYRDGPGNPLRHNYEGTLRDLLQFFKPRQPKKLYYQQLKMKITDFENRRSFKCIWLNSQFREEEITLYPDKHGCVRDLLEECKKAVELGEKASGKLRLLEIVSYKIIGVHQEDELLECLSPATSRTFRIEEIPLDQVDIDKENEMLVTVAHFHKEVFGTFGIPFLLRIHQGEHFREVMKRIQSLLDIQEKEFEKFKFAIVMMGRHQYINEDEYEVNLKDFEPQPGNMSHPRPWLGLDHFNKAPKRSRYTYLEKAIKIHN

| SMILES | Kd [1, 3] [nM] | Kd [1, 4] [nM] | IC50 [2, 5] [µM] | Kd ([1]; SPR USP7 CD + UBL 1-5 (KD_ss) [nM], steady-state KD) [nM] | IC50 [2] [µM] |
| --- | --- | --- | --- | --- | --- |
| C[C@H](CC(=O)N1CCC(O)(Cn2cnc3c(C#CCO)csc3c2=O)CC1)c1ccccc1 [U1] | < 1000 | < 1000 | < 1 |  |  |
| C[C@H](CC(=O)N1CCC(O)(Cn2cnc3cc(Br)ccc3c2=O)CC1)c1ccccc1 [U3] | 1000 to 100000 | 1000 to 100000 | 1 to 100 |  |  |
| C[C@H](CC(=O)N1CCC(O)(Cn2cnc3cc(Cl)ccc3c2=O)CC1)c1ccccc1 [U4] |  | 1000 to 100000 | 1 to 100 |  |  |
| C[C@H](CC(=O)N1CCC(O)(Cn2cnc3cc(N(C)CCN(C)CCCNC(=O)OC(C)(C)C)ccc3c2=O)CC1)c1ccccc1 [U5] | < 1000 | < 1000 | < 1 |  |  |
| C[C@H](CC(=O)N1CCC(O)(Cn2cnc3cc(NCCN(C)CCCNC(=O)OC(C)(C)C)ccc3c2=O)CC1)c1ccccc1 [U6] | < 1000 | < 1000 | < 1 |  |  |
| CCc1c(-c2ccc(C(=O)NCCCNC(=O)OC(C)(C)C)nc2)cnc(N)c1-c1ccc(O)cc1 [U7] | 1000 to 100000 | 1000 to 100000 | 1 to 100 |  |  |
| CCc1c(-c2ccc3[nH]ncc3c2)cnc(N)c1-c1ccc(O)cc1 [U8] | 1000 to 100000 | 1000 to 100000 | 1 to 100 |  |  |
| Cc1cc(Cl)cc(-c2ccnc3cc(CN4C(=O)CCC4=O)sc23)c1OC1CCN(CCCNC(=O)OC(C)(C)C)CC1 [U9] | < 1000 | < 1000 | < 1 |  |  |
| CCc1c(-c2ccc(C(=O)NCCOCCOCCOCCN=[N+]=[N-])nc2)cnc(N)c1-c1ccc(O)cc1 [U10] | 1000 to 100000 | 1000 to 100000 | 1 to 100 |  |  |
| CCc1c(-c2ccc(C(=O)NC)cc2)cnc(N)c1-c1ccc(O)cc1 [U11] |  | 1000 to 100000 | 1 to 100 |  |  |
| Cc1cc(Cl)cc(-c2ccnc3cc(CN4C(=O)CCC4=O)sc23)c1OC1CCN(C(=O)CCNC(=O)OC(C)(C)C)CC1 [U13] |  | 1000 to 100000 | 1 to 100 |  |  |
| C[C@H](CC(=O)N1CCC(O)(Cn2cnc3c(-c4ccc(CNC(=O)OC(C)(C)C)cc4)n(C)nc3c2=O)CC1)c1ccccc1 [U14] | < 1000 | < 1000 | < 1 |  |  |
| Cc1cc(Cl)cc(-c2ccnc3cc(CN4C(=O)CCC4=O)sc23)c1OC1CCN(C(=O)OC(C)(C)C)CC1 [U15] | 1000 to 100000 | 1000 to 100000 | > 100 |  |  |
| Cc1cc(Cl)cc(-c2ccnc3cc(CN4C(=O)CCC4=O)sc23)c1OC1CCNCC1 [U16] | < 1000 | < 1000 | < 1 |  |  |
| Cc1cc(Cl)cc(-c2ccnc3cc(CN4C(=O)CCC4=O)sc23)c1OC1CCN(C(=O)CN=[N+]=[N-])CC1 [U19] |  | < 1000 | < 1 |  |  |
| C[C@H](CC(=O)N1CCC(O)(CN2C=NC3C(C#CCOCCNC(=O)OC(C)(C)C)=CSC3C2=O)CC1)c1ccccc1 (stereo partly shown) [U20] |  | 1000 to 100000 | 1 to 100 |  |  |
| CCc1c(-c2ccc(OCCN)cc2)cnc(N)c1-c1ccc(O)cc1 [U21] |  | 1000 to 100000 | 1 to 100 |  |  |
| Cc1cc(Cl)cc(-c2ccnc3cc(CN4C(=O)CCC4=O)sc23)c1CC1CCN(C(=O)CN)CC1 [U22] |  | < 1000 | < 1 |  |  |
| C[C@H](CC(=O)N1CCC(O)(Cn2cnc3c(C#CCO)n(C)nc3c2=O)CC1)c1ccccc1 [U23] |  | < 1000 | < 1 |  |  |
| Nc1ncc(-c2ccc(O)cc2)cc1-c1ccc(O)cc1 [U24] |  | 1000 to 100000 | 1 to 100 |  |  |
| O=C(C[C@@H](C(F)F)n1ccc(F)n1)N1CCC(O)(Cn2cnc3c(cnn3-c3ccc(F)cc3)c2=O)CC1 [U25] |  |  |  | < 1000 | < 1 |
| O=C(CCc1ccccc1)N1CCC(O)(Cn2cnc3cc(Cl)ccc3c2=O)CC1 [U26] |  | 1000 to 100000 |  |  |  |
| C=CS(=O)(=O)Nc1ccccc1-c1ccc(C(=O)N2CCC(O)(Cn3cnc4c(cnn4C)c3=O)CC2)cc1 [U27] |  | 1000 to 100000 |  |  |  |
| C[C@H](CC(=O)C1CCC(O)(Cn2cnc3cc(C#CCN=[N+]=[N-])ccc3c2=O)CC1)c1ccccc1 (stereo partly shown) [U28] |  | < 1000 | 1 to 100 |  |  |
| C[C@H](CC(=O)N1CCC(O)(Cn2cnc3cc(C#CCN)ccc3c2=O)CC1)c1ccccc1 [U29] |  | < 1000 | > 100 |  |  |
| Cc1cc(Cl)cc(-c2ccnc3cc(CN4C(=O)CCC4=O)sc23)c1OC1CCN(CCCCCCCNC(=O)OC(C)(C)C)CC1 [U30] | < 1000 | < 1000 | < 1 |  |  |

| SMILES | Kd [1, 3] [nM] | Kd [1, 4] [nM] | IC50 [2, 5] [µM] | Kd ([1]; SPR USP7 CD + UBL 1-5 (KD_ss) [nM], steady-state KD) [nM] | IC50 [2] [µM] |
| --- | --- | --- | --- | --- | --- |
| Cc1cc(Cl)cc(-c2ccnc3cc(CN4C(=O)CCC4=O)sc23)c1OC1CCN(C(=O)CCCCCCCCNC(=O)OC(C)(C)C)CC1 [U31] |  | 1000 to 100000 | > 100 |  |  |
| Cc1cc(Cl)cc(-c2ccnc3cc(CN4C(=O)CCC4=O)sc23)c1OC1CCN(C(=O)CCOCCNC(=O)OC(C)(C)C)CC1 [U32] |  | 1000 to 100000 | 1 to 100 |  |  |
| Cc1cc(Cl)cc(-c2ccnc3cc(CN4C(=O)CCC4=O)sc23)c1OC1CCN(C(=O)CCOCCOCCNC(=O)OC(C)(C)C)CC1 [U33] |  | 1000 to 100000 | 1 to 100 |  |  |
| Cc1cc(Cl)cc(-c2ccnc3cc(CN4C(=O)CCC4=O)sc23)c1OC1CCN(C(=O)CCOCCOCCOCCNC(=O)OC(C)(C)C)CC1 [U34] |  | 1000 to 100000 | 1 to 100 |  |  |
| C[C@H](CC(=O)N1CCC(O)(Cn2cnc3cc(NCCN4CCN(CCCNC(=O)OC(C)(C)C)CC4)ccc3c2=O)CC1)c1ccccc1 [U35] |  | < 1000 | < 1 |  |  |
| C[C@H](CC(=O)N1CCC(O)(Cn2cnc(NCCN3CCN(CCN)CC3)cc2=O)CC1)c1ccccc1 [U37] |  | < 1000 | < 1 |  |  |
| Cn1nc2c(=O)n(CC3(O)CCN(C(=O)C[C@H](c4ccccc4)C(F)(F)F)CC3)cnc2c1Br [U38] |  | 1000 to 100000 | 1 to 100 |  |  |
| Cc1cc(Cl)cc(-c2ccnc3cc(CN4C(=O)CCC4=O)sc23)c1OC1CCN(CCCNC(=O)CCNC(=O)OC(C)(C)C)CC1 [U39] |  | < 1000 | < 1 |  |  |
| Cc1cc(Cl)cc(-c2ccnc3cc(CN4C(=O)CCC4=O)sc23)c1OC1CCN(CCCNC(=O)CCCCCCNC(=O)OC(C)(C)C)CC1 [U40] |  | < 1000 | < 1 |  |  |
| Cc1cc(Cl)cc(-c2ccnc3cc(CN4C(=O)CCC4=O)sc23)c1OC1CCN(CCCNC(=O)CCCCCCCNC(=O)OC(C)(C)C)CC1 [U41] |  | < 1000 | < 1 |  |  |
| CCc1c(-c2ccc(C(=O)NC)nc2)ccc(CNCCNC(=O)OC(C)(C)C)c1-c1ccc(O)cc1 [U43] |  | 1000 to 100000 | 1 to 100 |  |  |
| CCc1c(-c2ccc(C(=O)NCCOCCOCCOCCNC(=O)OC(C)(C)C)nc2)ccc(N)c1C1=CC=C(O)CC1 [U44] |  | 1000 to 100000 | 1 to 100 |  |  |
| CCc1c(-c2ccc(C(=O)NCCCNC(=O)CCCCNC(=O)OC(C)(C)C)nc2)cnc(N)c1-c1ccc(O)cc1 [U45] |  | 1000 to 100000 | 1 to 100 |  |  |
| C[C@H](CC(=O)N1CCC(O)(Cn2cnc3cc(NC(=O)CCN4CCN(CCN=[N+]=[N-])CC4)ccc3c2=O)CC1)c1ccccc1 [U46] |  | < 1000 | < 1 |  |  |
| CCc1c(-c2ccc(C(=O)NC)nc2)cnc(CNC(=O)OC(C)(C)C)c1-c1ccc(O)cc1 [U47] |  | 1000 to 100000 | 1 to 100 |  |  |
| CCc1c(-c2ccc(C(=O)NC)cc2)cnc(NC(=O)CN)c1-c1ccc(O)cc1 [U48] |  | 1000 to 100000 | > 100 |  |  |
| CCc1c(-c2ccc(C(=O)NCCCNC(=O)CCCCC(=O)OC(C)(C)C)nc2)cnc(N)c1-c1ccc(O)cc1 [U49] |  | 1000 to 100000 | 1 to 100 |  |  |
| CCc1c(-c2ccc(C(=O)NCCCNC(=O)CCCCCNC(=O)OC(C)(C)C)nc2)cnc(N)c1-c1ccc(O)cc1 [U50] |  | 1000 to 100000 | 1 to 100 |  |  |
| CCc1c(-c2ccc(C(=O)NCCCNC(=O)CCCCCCNC(=O)OC(C)(C)C)nc2)cnc(N)c1-c1ccc(O)cc1 [U51] |  | 1000 to 100000 | > 100 |  |  |
| CCc1c(-c2ccc(C(=O)NCCCNC(=O)CCCCCCCNC(=O)OC(C)(C)C)nc2)cnc(N)c1-c1ccc(O)cc1 [U52] |  | 1000 to 100000 | > 100 |  |  |
| CCc1c(-c2ccc(C(=O)NCCCNC(=O)CCNC(=O)OC(C)(C)C)nc2)cnc(N)c1-c1ccc(O)cc1 [U53] |  | 1000 to 100000 | 1 to 100 |  |  |
| CCc1c(-c2ccc(C(=O)NCCCNC(=O)CCCCCCCCNC(=O)OC(C)(C)C)nc2)cnc(N)c1-c1ccc(O)cc1 [U54] |  | 1000 to 100000 | > 100 |  |  |
| CCc1c(-c2ccc(C(=O)NCCCNC(=O)CCOCCNC(=O)OC(C)(C)C)nc2)cnc(N)c1-c1ccc(O)cc1 [U55] |  | 1000 to 100000 | 1 to 100 |  |  |
| CCc1c(-c2ccc(C(=O)NCCCNC(=O)CCOCCOCCNC(=O)OC(C)(C)C)nc2)cnc(N)c1-c1ccc(O)cc1 [U56] |  | 1000 to 100000 | 1 to 100 |  |  |
| CCc1c(-c2ccc(C(=O)NCCCNC(=O)CCOCCOCCOCCNC(=O)OC(C)(C)C)nc2)cnc(N)c1-c1ccc(O)cc1 [U57] |  | 1000 to 100000 | 1 to 100 |  |  |
